Source: paper PMC7529893, “Structural basis for substrate recognition and chemical inhibition of oncogenic MAGE ubiquitin ligases” (Nature Communications, 2020)

molecular target: T1, MAGE-A11:PCF11 interaction (GST-MAGE-A11 MHD and FAM-PCF11_4) (Homo sapiens, UniProt P43364); test: TR-FRET dose response test of compounds for disruption of MAGE-A11:PCF11 binding; conditions: Dose response TR-FRET screening of nine scaffold groups against MAGE-A11:PCF11; read-out: consensus IC50
T1 construct: GST-MAGE-A11 MHD (human MAGE-A11 MHD amino acid 218-429); made in house; host or cells: E. coli BL21(DE3)
T1 sequence (P43364 218-429): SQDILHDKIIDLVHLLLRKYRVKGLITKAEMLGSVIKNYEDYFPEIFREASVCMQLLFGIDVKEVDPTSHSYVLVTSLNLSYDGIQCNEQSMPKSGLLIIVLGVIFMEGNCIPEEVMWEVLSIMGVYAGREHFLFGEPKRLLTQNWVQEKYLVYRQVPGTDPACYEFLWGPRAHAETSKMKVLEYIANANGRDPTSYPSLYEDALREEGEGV
Procedure: The TR-FRET assay buffer with a formula of 50 mM Tris pH 7.5, 20 mM MgCl2, 0.1 mg/ml BSA and 1 mM DTT was freshly prepared before each experiment. All TR-FRET assays were performed in black 384-well plates with 20 µl/well assay volume in the TR-FRET assay buffer at room temperature (~25 °C). All peptides or compounds were solubilized in DMSO. To test the competitive activity of peptides or compounds against the interaction between GST-MAGE-A11 MHD and FAM-PCF11_4 peptide, 10 µl/well peptide or compound at specified concentration was dispensed into a black 384-well low volume plate, followed by 5 µl/well FAM-PCF11_4 (800 nM), 5 µl/well Tb-anti-GST (20 nM), and GST-MAGE-A11 MHD (20 nM). The assay components in each well was then mixed by shaking the plate on an IKA MTS 2/4 digital microtiter plate shaker (IKA Works; Wilmington, NC, USA) for 1 min. The plate was further centrifuged in an Eppendorf 5810 centrifuge with an A-4-62 swing-bucket rotor (Eppendorf AG, Hamburg, Germany) at 201 g for 30 s. The plate was then incubated for 90 min with a lid to avoid light exposure to the assay components. After incubation, the fluorescent emission signals at 520 nm and 490 nm channels of individual wells were measured with a PHERAstar FS plate reader (BMG Labtech; Durham, NC, USA) by using a 340 nm excitation filter, 100 µs delay time, and 200 µs integration time. The TR-FRET fluorescence emission ratio (TR-FRET signal) for each well was presented as 10,000 × 520 nm/490 nm, which was used directly for curve fitting, or further converted to %Inhibition based on the respective positive and negative controls. The graphic software GraphPad Prism 4.81 (GraphPad Software; La Jolla, CA, USA) was used to generate curves and derive IC50 values of tested peptides or compounds, if applicable.
TR-FRET screen for identifying MAGE-A11 small molecule inhibitors was performed as follows. The primary one-concentration screening and subsequent 10 or 20-concentration dose-response tests were accomplished with an automated High Throughput Screening system (HighRes Biosolutions, Beverly, MA)[30]. In the primary screening, 15 µl/well FAM-PCF11_4 (267 nM) was first dispensed with a Multidrop Combi Reagent Dispenser (Thermo Fisher Scientific, Waltham, MA) to black 384-well low-volume assay plates. The plates were spun down with a Velocity11 VSpin microplate centrifuge (Agilent Technologies, Santa Clara, CA). In total, 30 nl/well of 10 mM compound/DMSO solutions, or DMSO alone, were transferred from compound plates (the St. Jude FDA drug and bioactive library, Drug-like library and Lead-like library) or a control plate to the assay plates with a Pin Tool (V&P Scientific, San Diego, CA). The compounds were arrayed in columns 3–12 and columns 15–24 of compound plates. The controls were arrayed in columns 1, 2, 13, and 14 of a compound plate. In all, 5 µl/well Tb-anti-GST (20 nM) and GST-MAGE-A11 (20 nM) or 5 µl/well Tb-anti-GST (20 nM) alone was then dispensed to selected wells with a Multidrop Combi Reagent Dispenser. The final assay volume was 20 µl/well. The final DMSO concentration was 0.25% (v/v) (0.1% (v/v) from the FAM-PCF11_4 DMSO stock solution and 0.15% (v/v) from the compound-DMSO solution or the DMSO for the control wells). The final tested compound concentration was 15 µM. The final FAM-PCF11_4 concentration was 200 nM and the final Tb-anti-GST concentration was 5 nM. The final GST-MAGE-A11 concentration was 5 nM except for those selected positive control wells in which GST-MAGE-A11 was not presented. The plates were then shaken with a big bear shaker (Big Bear Automation, Santa Clara, California) and spun down with the Velocity11 VSpin microplate centrifuge for 20 s. The plates were then incubated at room temperature in a Liconic incubator (Liconic US, Woburn, MA) for 90 min. The TR-FRET signals for individual wells were measured with a PHERAstar FS plate reader. The %Inhibition of each tested inhibitor was calculated by using Eq. 1.

Structure (SMILES) | IC50 [µM]
CN(C)c1ccc(NC2=C(Cl)C(=O)c3ccccc3C2=O)cc1 [SJ000109503-1] | 3.3
NC1=C(Nc2ccc(Cl)cc2)C(=O)c2ccccc2C1=O [SJ000562630-1] | 53.8
Cc1ccc(S(=O)(=O)c2nc(-c3ccc(F)cc3)oc2N2CCOCC2)cc1 [SJ000230854-1] | 11.7
COc1ccc2cc(C3Nc4ccccc4C(=O)N3CCCN3CCOCC3)ccc2c1 (stereo not shown) [SJ000803763-1] | 67.4
CCC(COC(C)=O)NC1=C(Cl)C(=O)c2ccccc2C1=O (stereo not shown) [SJ000149466-1] | 17.2
Cn1c(=O)c2[nH]c(-c3ccc(S(=O)(=O)O)cc3)nc2n(C)c1=O [SJ000287642-4] | 21.8
COc1cc(NCc2ccc3nc(N)nc(N)c3c2C)cc(OC)c1OC [SJ000574313-7] | 9.46
COc1ccc(C2Nc3ccccc3C(=O)N2CCCN2CCOCC2)cc1OC(F)F (stereo not shown) [SJ000803760-1] | > 70
Cc1ccccc1NC1=C(N)C(=O)c2ccccc2C1=O [SJ000562551-1] | > 70
CCOc1ccc(N(C(C)=O)C2=C(N)C(=O)c3ccccc3C2=O)cc1 [SJ000558312-2] | 65.7
Cc1ccc(C2Nc3ccccc3C(=O)N2CCCN2CCOCC2)cc1 (stereo not shown) [SJ000803768-1] | 65.9
CCOc1ccc(C2Nc3ccccc3C(=O)N2CCCN2CCOCC2)cc1 (stereo not shown) [SJ000803759-1] | 67.7
CSc1ccc(C2Nc3ccccc3C(=O)N2CCCN2CCOCC2)cc1 (stereo not shown) [SJ000803762-1] | > 70
Cc1ccc(S(=O)(=O)N2CCN(C3=C(Cl)C(=O)c4ccccc4C3=O)CC2)cc1 [SJ000021282-1] | 10.4
O=C1OCC(c2ccc(OC(F)F)cc2)=C1c1ccc([N+](=O)[O-])cc1 [SJ000368145-1] | 40.8
COc1cccc(-c2nc(S(=O)(=O)c3ccc(Cl)cc3)c(N3CCOCC3)o2)c1 [SJ000038124-1] | 7.43
CCOC(=O)N1CCN(Cc2ccc3c(c2)c2ccccc2n3CC)CC1 [SJ000147352-1] | 29.5

Now from value to compound:

IC50 [µM] | Structure (SMILES)
23.7 | c1cc(CNCCCNc2ccnc3cc(C4CCCCC4)ccc23)c2c(c1)OCO2 [SJ000311264-1]
26.5 | COc1cccc(CNCCCNc2ccnc3cc(CCc4ccccc4)ccc23)c1O [SJ000311255-1]
29 | COc1ccc(F)cc1CNCCCNc1ccnc2cc(Oc3ccccc3)ccc12 [SJ000311209-1]
7.65 | COc1cccc(CNCCCNc2ccnc3cc(Oc4ccc(C(C)(C)C)cc4)ccc23)c1O [SJ000311235-1]
38.9 | COc1ccc(F)cc1CNCCCNc1ccnc2cc(-c3ccc(F)cc3)ccc12 [SJ000311241-1]
29.2 | COc1cccc(CNCCCNc2ccnc3cc(CC4CCCCC4)ccc23)c1O [SJ000311251-1]
61.9 | COc1cccc(CNCCCNc2ccnc3cc(Oc4ccc(F)cc4)ccc23)c1O [SJ000311223-1]
37.1 | COc1ccc(F)cc1CNCCCNc1ccnc2cc(CCc3ccccc3)ccc12 [SJ000311256-1]
40.9 | CCc1ccc(CNCCCNc2ccnc3cc(C(F)(F)F)ccc23)cc1 [SJ000521067-1]
24.6 | COc1cccc(CNCCCNc2ccnc3cc(-c4ccc5c(c4)OCO5)ccc23)c1O [SJ000311291-1]
35.1 | COc1ccc(F)cc1CNCCCNc1ccnc2cc(Cc3ccc(F)cc3)ccc12 [SJ000311245-1]
17.6 | COc1ccc(F)cc1CNCCCNc1ccnc2cc(Cc3ccc(F)cc3Cl)ccc12 [SJ000311325-1]
32.4 | COc1cccc(CNCCCNc2ccnc3cc(C4CCCCC4)ccc23)c1O [SJ000311263-1]
42.3 | Fc1ccc(Cc2ccc3c(NCCCNCc4cccc5c4OCO5)ccnc3c2)cc1 [SJ000311244-1]
26.3 | COc1ccc(F)cc1CNCCCNc1ccnc2cc(CC3CCCCC3)ccc12 [SJ000311253-1]

same assay, conditions: Supplementary Data 3, 59 quinoline compounds; read-out: TR-FRET IC50

Structure (SMILES) | IC50 [µM]
CCCCCN(CCC)CCCNc1ccnc2cc(C(F)(F)F)ccc12 [SJ000361271-1, CCCCCN(CCC)CCCNc1ccnc2cc(ccc12)C(F)(F)F] | > 70
CCCN(CCCNc1ccnc2cc(C(F)(F)F)ccc12)Cc1ccc[nH]1 [SJ000361255-1, CCCN(CCCNc1ccnc2cc(ccc12)C(F)(F)F)Cc3ccc[nH]3] | > 70
CCCN(CCCNc1c2ccc(Cl)cc2nc2ccc(OC)cc12)Cc1ccc2[nH]ccc2c1 [SJ000522732-2, CCCN(CCCNc1c2ccc(Cl)cc2nc3ccc(OC)cc13)Cc4ccc5[nH]ccc5c4] | > 70
FC(F)(F)c1ccc(-c2ccc3c(NCCCNCc4ccco4)ccnc3c2)cc1 [SJ000311278-1, FC(F)(F)c1ccc(cc1)c2ccc3c(NCCCNCc4occc4)ccnc3c2] | 22.7
Clc1ccc2c(NCCCCN(Cc3ccccc3)CC3CCCCC3)ccnc2c1 [SJ000361194-2, Clc1ccc2c(NCCCCN(CC3CCCCC3)Cc4ccccc4)ccnc2c1] | > 70
COc1ccc(Oc2ccc3c(NCCCNCc4ccco4)ccnc3c2)cc1 [SJ000311218-1, COc1ccc(Oc2ccc3c(NCCCNCc4occc4)ccnc3c2)cc1] | > 70
CCCCCCN(CCC)CCCNc1ccnc2cc(C(F)(F)F)ccc12 [SJ000523083-1, CCCCCCN(CCC)CCCNc1ccnc2cc(ccc12)C(F)(F)F] | > 70
CCCN(CCCNc1ccnc2cc(C(F)(F)F)ccc12)CC1CC1 [SJ000361266-1, CCCN(CCCNc1ccnc2cc(ccc12)C(F)(F)F)CC3CC3] | > 70

Continued, values first:

IC50 [µM] | Structure (SMILES)
33 | FC(F)(F)c1ccc2c(NCCCNCc3ccc[nH]3)ccnc2c1 [SJ000361105-1, FC(F)(F)c1ccc2c(NCCCNCc3ccc[nH]3)ccnc2c1]
> 70 | Clc1ccc2c(NCCCNCc3cc4ccccc4s3)ccnc2c1 [SJ000521032-1, Clc1ccc2c(NCCCNCc3cc4ccccc4s3)ccnc2c1]
> 70 | CCCN(CCCNc1ccnc2cc(Cl)ccc12)Cc1c(C)cc(C)cc1C [SJ000522749-1, CCCN(CCCNc1ccnc2cc(Cl)ccc12)Cc3c(C)cc(C)cc3C]
> 70 | CN(C)c1cccc(Oc2ccc3c(NCCCNCc4ccco4)ccnc3c2)c1 [SJ000311230-1, CN(C)c1cccc(Oc2ccc3c(NCCCNCc4occc4)ccnc3c2)c1]
38.4 | Clc1cccc(Cl)c1Cc1ccc2c(NCCCNCc3ccco3)ccnc2c1 [SJ000311314-1, Clc1cccc(Cl)c1Cc2ccc3c(NCCCNCc4occc4)ccnc3c2]
> 70 | FC(F)(F)c1ccc2c(NCCCNCc3csc4ccccc34)ccnc2c1 [SJ000521061-1, FC(F)(F)c1ccc2c(NCCCNCc3csc4ccccc34)ccnc2c1]
> 70 | Cc1ccc(C)c(CN(CCCCNc2ccnc3cc(Cl)ccc23)Cc2ccccc2)c1 [SJ000361209-2, Cc1ccc(C)c(CN(CCCCNc2ccnc3cc(Cl)ccc23)Cc4ccccc4)c1]
> 70 | c1coc(CNCCCNc2ccnc3cc(C4CCCCC4)ccc23)c1 [SJ000311262-1, C(CNCc1occc1)CNc2ccnc3cc(ccc23)C4CCCCC4]

same assay, conditions: Supplementary Data 4; read-out: TR-FRET, IC50

IC50 [µM] | Structure (SMILES)
5.58 | COc1ccc(F)cc1CNCCCNc1ccnc2cc(-c3ccc(C(F)(F)F)cc3)ccc12 [SJ000311281-01]
